The target in series [1] is T1, RgpB (Porphyromonas gingivalis, UniProt P95493).
T1 construct: 0.02 nM RgpB, isolated from culture of Porphyromonas gingivalis; made in house; host or cells: Porphyromonas gingivalis culture (native enzyme purified from the bacterium, not recombinant)
The series is described as follows: RgpB fluorogenic inhibition assay. Format: biochemical. Here is the method:
The capacities of compounds of the present invention to inhibit the activity of RgpB were measured in a fluorogenic assay similar to those described in Barret Biochemical Journal. 1980, 187(3), 909. The specific assay conditions were as follows. Buffer: pH=7.5, 100 mM Tris-HCl, 75 mM NaCl, 2.5 mM CaCl2, 10 mM cysteine, 1% DMSO after all additions. Protein: 0.02 nM RgpB, isolated from culture of Porphyromonas gingivalis, as described in Pike et al. J Biol. Chem. 1994, 269(1), 406, and Potempa and Nguyen. Current Protocols in Protein Scienc. 2007, 21.20.1-21.20.27. Fluorogenic substrate: 10 uM Boc-Phe-Ser-Arg-MCA. Time=90 minutes. Temperature=37° C. Each compound: 10 concentrations, starting at either 100 uM or 100 nM, with lower concentrations generated by serial 3-fold dilutions. By testing a range of concentrations for each compound, the concentration required to inhibit the activity of RgpB by 50% (the “IC50”) was determined. Under the described assay conditions, signal-to-noise was excellent, and Z factor was greater than 0.7.
(§1) The inhibitory of activity of compounds described herein was tested against Kgp, RgpB, RgpA, and trypsin.

Series [2] has as its target T2, trypsin (Bos taurus, UniProt P00760).
T2 construct: gene PRSS1
T2 sequence (P00760 24-246): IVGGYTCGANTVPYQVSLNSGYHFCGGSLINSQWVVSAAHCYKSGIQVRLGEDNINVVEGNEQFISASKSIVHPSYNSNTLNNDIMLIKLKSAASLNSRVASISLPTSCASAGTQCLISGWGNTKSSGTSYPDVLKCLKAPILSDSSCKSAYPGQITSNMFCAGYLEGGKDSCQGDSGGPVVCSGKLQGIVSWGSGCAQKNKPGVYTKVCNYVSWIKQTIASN
Nature of the series: Trypsin inhibition assay. The class given is biochemical. Here is the method: as §1

Series [3] deals with RgpA (Porphyromonas gingivalis, UniProt B2RM93). Nature of the series: RgpA inhibition assay. The class given is biochemical. The protocol:
as §1

For series [4], the target named is Kgp (Porphyromonas gingivalis, UniProt B2RLK2). Nature of the series: Kgp inhibition assay. The class given is biochemical. Here is the method: as §1
Series [5] is described as follows: Plasma pharmacokinetics after subcutaneous delivery. Format: in vivo. The settings on record: 10 mg/kg; for AUC(0-t): male, CD1, mouse, plasma, sc, mice. The protocol: Compound 13 was dissolved at a concentration of 1 mg/mL in water containing carboxymethylcellulose (2% w/w) or Pluronic F127 (25% w/w). Solutions were kept on ice, and 10 mg/kg of each solution was administered to 3 male CD1 mice. Plasma was collected at 7 time points. Concentrations in plasma were determined by HPLC with tandem mass (MS/MS) detection.
Plasma samples were precipitated with a mixture containing 80% acetonitrile. Samples were further diluted with water containing 0.1% formic acid. Chromatographic separation was performed on a reversed phase column (2.1×50 mm, particle size: […], Xbridge C8, Waters, USA). Components were separated using a linear gradient of acetonitrile containing 0.1% formic acid in ultrapurified H2O containing 0.1% formic acid (flow rate 0.2 mL/min).
MS analyses were performed using an API 5500 QTRAP system having an API 5500 QTRAP detector and a Turbo Ion Spray interface (both from Applied Biosystems, USA). The acquisitions were performed in positive ionization mode, with optimized settings for the analytes. The instrument was operated in multiple-reaction-monitoring (MRM) mode, the following transition was used to quantify compound 13; 433.4->112.1. Data were calibrated and quantified using the Analyst™ data system (Applied Biosystems) using the response of the analyte versus the concentration.

In series [6] the test system is SH-SY5Y neuroblastoma cells. Nature of the series: Rescue of neuroblastoma cells from P. gingivalis toxicity. Format: cell-based. The conditions noted are these: 4 μg/mL, P. gingivalis ATCC BAA-308, MOI 1:1000, 48 hours. Here is the method:
SH-SY5Y neuroblastoma cells were cultured based on established methods [Saberi S., et al. Cell Mol Neurobiol 2013. 33: 5 747-751]. The strain P. gingivalis ATCC BAA-308 was streaked onto a brain heart infusion agar (BHA), and the plate was incubated for 72 h at 37° C. in an anaerobic workstation with an atmosphere of 80% N2, 10% CO2, and 10% H2. The plates were removed from the anaerobic work station for testing and processed under ambient atmosphere. The bacteria were harvested and suspended in complete medium-Pen/Strep (without Pen/Strep). The turbidity of the suspension was adjusted to 0.5, as measured using a MicroScan® Turbidity Meter (Siemens), which is equivalent to ˜6×10^8 cfu/mL (for MOI 1:1000) and incubated with the cells for 48 hours. 4 μg/mL of Compound 13 was added to the media at the time of introduction of the bacteria. Results were recorded using a digital microscope camera (FIG. 5). […] Other compounds of the invention are tested as described for Compound 13.

For series [7], the system named is P gingivalis W83. Nature of the series: P. gingivalis infection of brain tissue in vivo (qPCR). Set-up: species or system BalbC mice. The conditions noted are these: BID subcutaneously in 25% Pluronic F127, day 35-70. The source says:
BalbC mice were given a tooth ligature and infected by oral lavage with P gingivalis W83 (1×10^9 CFU in 2% carboxymethyl cellulose) or vehicle for 6 weeks. Compound 13 was delivered BID subcutaneously in 25% Pluronic F127 on day 35-70. On day 70, mice were sacrificed and perfused with PBS prior to dissection. DNA was isolated from one quarter of the brain using a DNEasy Blood & Tissue Kit (Qiagen). Forward and reverse primers for RgpB were used for qPCR to quantify P. gingivalis DNA in the brain tissue. The forward primer sequence was 5′-[…]-3′ (SEQ ID NO: 1). The reverse primer sequence was 5′-[…]-3′ (SEQ ID NO: 2). The probe sequence was 5′-6-FAM-[…]-TAMRA-3′ (SEQ ID NO: 3).
Background: In qPCR the cycle at which signal appears reflects the starting amount.

Series [8] concerns gingipain-containing P. gingivalis supernatant. Nature of the series: Degradation of human collagen by P. gingivalis supernatant (SDS-PAGE). Format: biochemical, Porphyromonas gingivalis. The conditions noted are these: 50 μM inhibitor, 1h, pH 7.5. The protocol:
P. gingivalis was grown to exponential phase (OD 600 nm=0.6) in a Coy's anaerobic chamber under 5% hydrogen, 10% carbon dioxide, and […]. The bacteria were centrifuged at 5000×g for 10 min at 4° C., and then the supernatant was collected. The supernatant was concentrated by centrifugation at 5000×g for 60 min at 4° C. min using Corning Spin-X UF-20 concentrator tubes and then at 17,000×g for 30 min using Corning Spin-X UF500 concentrator tubes. 10 μg of Collagen type I was incubated with 0.6 μg of P. gingivalis culture supernatant for 1h in the absence or presence of 50 μM Rgp inhibitor (Compound 13, Table 1), 50 μM Kgp inhibitor ((S)—N-(6-guanidino-2-oxo-1-(2,3,5,6-tetrafluorophenoxy)hexan-3-yl)cyclopentanecarboxamide; described in U.S. Pat. Appl. Pub. No. 2016/0096830), or both. Reaction mixtures contained 5 mM cysteine, 20 mM sodium phosphate buffer, pH 7.5. After incubation, the reaction was terminated by the addition of protease inhibitor cocktail (Sigma). The samples were then analyzed by SDS-polyacrylamide gel electrophoresis. Following separation, the gels were stained with Biosafe Coomassie (Bio-Rad).

The conditions of series [9]: oral RTV 15 minutes prior to Kyt-36; from U.S. patent application Ser. No. 14/875,416; cited from earlier work.

“Also recorded” adds a separate entry of the source.

Usually IC50 stands for the midpoint of a concentration-inhibition curve. A low value points to greater potency in that assay. The term AUC(0-t) denotes exposure summed from dosing to a finite time, without extrapolation to infinity.

Consider `N=C(N)NCCCC(NC(=O)[C@H]1CC[C@@H](N)C1)C(=O)c1nc2ccccc2s1` (single isomer, unassigned) [Compound 9], for which the IC50 in series [1] was under 2 nM.

In turn, `N=C(N)NCCCC(NC(=O)[C@H]1CC[C@@H](N)C1)C(=O)c1nc2ccccc2s1` (single isomer, unassigned) [Compound 10] displayed an IC50 in series [2] of over 1000 nM.

As for `CC[C@H](NC(C)=O)C(=O)NC(CCCNC(=N)N)C(=O)c1nc2ccccc2s1` (single isomer, unassigned) [Compound 11], the IC50 in series [2] was over 40 nM.

Take `CC[C@H](NC(C)=O)C(=O)NC(CCCNC(=N)N)C(=O)c1nc2ccccc2s1` (single isomer, unassigned) [Compound 12]: in series [1], the IC50 was under 2 nM.

In series [1], `N=C(N)NCCC[C@H](NC(=O)C1CCCC1)C(=O)c1nc2ccccc2s1` [Compound 1, N-[(1S)-1-(1,3-benzothiazole-2-carbonyl)-4-guanidino-butyl]cyclopentanecarboxamide] displayed an IC50 of under 1 nM. `CCCC(=O)N[C@@H](CCCNC(=N)N)C(=O)c1nc2ccccc2s1` [Compound 2, N-[(1S)-1-(1,3-benzothiazole-2-carbonyl)-4-guanidino-butyl]butanamide]: the IC50 is under 2 nM in series [1] and over 1000 nM in series [2]. In the same order, the values of `N=C(N)NCCC[C@H](NC(=O)c1ccccc1)C(=O)c1nc2ccccc2s1` [Compound 3, N-[(1S)-1-(1,3-benzothiazole-2-carbonyl)-4-guanidino-butyl]benzamide] are under 2 nM and over 1000 nM.

The molecule `N=C(N)NCCC[C@H](NC(=O)c1ccccc1C(F)(F)F)C(=O)c1nc2ccccc2s1` [Compound 4, N-[(1S)-1-(1,3-benzothiazole-2-carbonyl)-4-guanidino-butyl]-2-(trifluoromethyl)benzamide] gave an IC50 in series [2] of over 350 nM. On to `N=C(N)NCCC[C@H](NC(=O)CCCN)C(=O)c1nc2ccccc2s1` [Compound 5, 4-amino-N-[(1S)-1-(1,3-benzothiazole-2-carbonyl)-4-guanidino-butyl]butanamide], for which the IC50 in series [2] was over 1000 nM.

Turning to `N=C(N)NCCC[C@H](NC(=O)[C@H]1CCCNC1)C(=O)c1nc2ccccc2s1` [Compound 6, (3S)—N-[(1S)-1-(1,3-benzothiazole-2-carbonyl)-4-guanidino-butyl]piperidine-3-carboxamide], the IC50 in [2] was over 1000 nM. `N=C(N)NCCC[C@@H](NC(=O)[C@H]1CCCNC1)C(=O)c1nc2ccccc2s1` [Compound 7, (3S)—N-[(1R)-1-(1,3-benzothiazole-2-carbonyl)-4-guanidino-butyl]piperidine-3-carboxamide] yielded an IC50 in [2] of over 1000 nM.

In series [2], `N=C(N)NCCC[C@H](NC(=O)[C@H]1CCNC1)C(=O)c1nc2ccccc2s1` [Compound 8, (3S)—N-[1-(1,3-benzothiazole-2-carbonyl)-4-guanidino-butyl]pyrrolidine-3-carboxamide] showed an IC50 of over 1000 nM. As for `N=C(N)NCCC[C@H](NC(=O)C1CCCC1)C(=O)COc1c(F)c(F)cc(F)c1F` [Compound 13, N-[(1S)-4-guanidino-1-[2-(2,3,5,6-tetrafluorophenoxy)acetyl]butyl]cyclopentanecarboxamide], the IC50 in series [1] is under 1 nM; in series [3] it was under 0.5 nM; in [4], over 150 nM. In addition, the “Plasma concentration over time” value in series [5] (Pluronic F127 versus carboxymethylcellulose) is reported as “increased concentration”. Moreover, the AUC(0-t) in series [5] (in 2% carboxymethylcellulose) came to 687 ng·h/mL; in series [5] (in 25% Pluronic F127), 2120 ng·h/mL. For the same molecule, in [6], the “Rescue of cells from P. gingivalis toxicity” value was “can rescue; also recorded: prevented the toxicity”. The “P. gingivalis DNA in brain tissue by qPCR” value in series [7] is given as “demonstrates efficacy”. For the same molecule, the “Degradation of collagen type I by P. gingivalis culture supernatant” value in [8] is “prevent degradation of collagen”.

As for `[N-]=[N+]=Nc1cccc(C(=O)N[C@@H](CCCNC(=N)N)C(=O)COc2c(F)c(F)cc(F)c2F)c1` [Compound 14, 3-azido-N-[(1S)-4-guanidino-1-[2-(2,3,5,6-tetrafluorophenoxy)acetyl]butyl]benzamide], the values for the IC50 in series [3] and in series [4] were under 0.5 nM and over 450 nM, respectively. For `CN(NC(=O)CC[C@H](NC(=O)OCc1ccccc1)C(=O)N[C@@H](CCCCN)C(=O)C(=O)NCc1ccccc1)c1ccccc1` [Kyt-36], the Half-life result in series [9] is reported as “increases the half-life”.

Source of the values: patent US10906881B2, “Inhibitors of arginine gingipain” (priority 2015, dated 2021).
